US9744148B2, “Kallikrein 7 inhibitors” (SIXERA PHARMA AB, priority 2014, dated 2017)

Molecular target: Active human KLK7 (SCCE) (Homo sapiens (Human), UniProt P49862)
Assay: KLK7 Inhibitor Test
Assay type: biochemical
Details: substrate MeO-Suc-Arg-Pro-Tyr-pNA, pH 7.2, 37° C., absorbance at 405 nm
Experimental: KLK7 Inhibitor Test Substrate:(MeO-Suc-[…]), acetate salt, Peptide international, lot #906841, previously named S-2586 Enzyme: […] Buffer: 10 mM NaPhospate, 0.5 M NaCl, pH 7.2 […] 10 μl of substance in DMSO was added to wells giving final concentrations of 20 μ[…], and 0.15625 μM. 40 μl of active KLK7 (SCCE) (diluted to 12.5 μg/ml in activity buffer) was added all wells except blank to which activity buffer was added. […] The mean value V of each sample was calculated (n=2 for the substances and n=4 for the control). From the values of V the % of total activity was calculated as (Vinhibitor/Vcontrol (no inhibitor))×100. Plotting and calculation was then done in originPro. % of total activity (y) was plotted vs. log [inhibitor] (log x) and a function of dose response y=A1+(A2-A1)/(1+10^((LOG(x0)-x)*p)) where A1=Bottom platue, A2=Top platue, x0=EC50 and p=Hill slope was fitted to the curve. […] The IC50 values were used to identify KLK7 inhibitors according to the invention.

Sequence of Active human KLK7 (SCCE) (P49862 30-253): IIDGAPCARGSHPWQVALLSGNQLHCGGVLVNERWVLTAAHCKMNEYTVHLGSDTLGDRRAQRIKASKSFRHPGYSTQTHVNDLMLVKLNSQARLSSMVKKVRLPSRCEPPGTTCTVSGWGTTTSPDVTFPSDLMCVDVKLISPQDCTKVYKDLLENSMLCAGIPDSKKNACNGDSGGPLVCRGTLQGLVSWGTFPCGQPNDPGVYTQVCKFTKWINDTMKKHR

| SMILES | IC50 [µM] |
| --- | --- |
| Cc1cc(NC(=O)C(OC(=O)C(c2ccccc2)c2ccccc2)c2ccccc2)no1 (stereo not shown) [Compound 54, [2-[(5-methylisoxazol-3-yl)amino]-2-oxo-1-phenyl-ethyl] 2,2-diphenylacetate] | 1.1 |
| O=C(COC(=O)CCC1CCCC1)Nc1ccccc1 [Compound 55] | 1.11 |
| COc1ccc(CC(=O)OC(C(=O)Nc2ccc(F)cc2)c2ccccc2)cc1 (stereo not shown) [Compound 56] | 1.17 |
| COc1ccc(NC(=O)C(C)OC(=O)C(c2ccccc2)c2ccccc2)cc1 (stereo not shown) [Compound 57] | 1.18 |
| Cc1cc(NC(=O)COC(=O)CCC2CCCC2)no1 [Compound 58] | 1.2 |
| COc1ccc(NC(=O)COC(=O)C(NC(=O)c2ccccc2)c2ccccc2)cc1 (stereo not shown) [Compound 59, [2-(4-methoxyanilino)-2-oxo-ethyl] 2-benzamido-2-phenyl-acetate] | 1.23 |
| Cc1cc(NC(=O)COC(=O)C(NC(=O)c2ccccc2)c2ccccc2)no1 (stereo not shown) [Compound 60, [2-[(5-methylisoxazol-3-yl)amino]-2-oxo-ethyl] 2-benzamido-2-phenyl-acetate] | 1.47 |
| O=C(COC(=O)C(NC(=O)c1ccccc1)c1ccccc1)Nc1ccc(F)cc1 (stereo not shown) [Compound 61, [2-(4-fluoroanilino)-2-oxo-ethyl] 2-benzamido-2-phenyl-acetate] | 1.51 |
| O=C(COC(=O)C(NC(=O)c1ccccc1)c1ccccc1)Nc1ccccc1 (stereo not shown) [Compound 62, (2-anilino-2-oxo-ethyl) 2-benzamido-2-phenyl-acetate] | 1.56 |
| CC(OC(=O)C(c1ccccc1)c1ccccc1)C(=O)Nc1ccc(F)cc1 (stereo not shown) [Compound 63] | 1.62 |
| CCC(OC(=O)C(NC(=O)c1ccccc1)c1ccccc1)C(=O)Nc1ccc(OC)cc1 (stereo not shown) [Compound 64, 1-[(4-methoxyphenyl)carbamoyl]propyl 2-benzamido-2-phenyl-acetate] | 1.7 |
| CCC(OC(=O)C(NC(=O)c1ccccc1)c1ccccc1)C(=O)Nc1ccc(F)cc1 (stereo not shown) [Compound 65, 1-[(4-fluorophenyl)carbamoyl]propyl 2-benzamido-2-phenyl-acetate] | 1.79 |
| CC(OC(=O)C(NC(=O)c1ccccc1)c1ccccc1)C(=O)Nc1ccccc1 (stereo not shown) [Compound 66, (2-anilino-1-methyl-2-oxo-ethyl) 2-benzamido-2-phenyl-acetate] | 1.85 |
| COc1ccc(CC(=O)OCC(=O)Nc2ccc(F)cc2)cc1 [Compound 67] | 2.28 |
| COc1ccc(CC(=O)OCC(=O)Nc2ccc(OC)cc2)cc1 [Compound 68] | 2.31 |
| Cc1cc(NC(=O)COC(=O)CCC2CCCC2)no1 [Compound 69] | 2.7 |
| Cc1cc(NC(=O)C(OC(=O)Cc2ccc(Cl)cc2)C(C)C)no1 (stereo not shown) [Compound 70, [2-methyl-1-[(5-methylisoxazol-3-yl)carbamoyl]propyl] 2-(4-chlorophenyl)acetate] | 2.7 |
| COc1ccc(NC(=O)C(C)OC(=O)C(NC(=O)c2ccccc2)c2ccccc2)cc1 (stereo not shown) [Compound 71, [2-(4-methoxyanilino)-1-methyl-2-oxo-ethyl] 2-benzamido-2-phenyl-acetate] | 2.76 |
| Cc1cc(NC(=O)C(OC(=O)CCC2CCCC2)C(C)C)no1 (stereo not shown) [Compound 72, [2-methyl-1-[(5-methylisoxazol-3-yl)carbamoyl]propyl] 3-cyclopentylpropanoate] | 2.78 |
| Cc1cc(NC(=O)COC(=O)Cc2ccc(Cl)cc2)no1 [Compound 73] | 2.9 |
| COc1ccc(CC(=O)OCC(=O)Nc2cc(C)on2)cc1 [Compound 74] | 3.05 |
| Cc1cc(NC(=O)C(OC(=O)C(NC(=O)c2ccccc2)c2ccccc2)C(C)C)no1 (stereo not shown) [Compound 75, [2-methyl-1-[(5-methylisoxazol-3-yl)carbamoyl]propyl] 2-benzamido-2-phenyl-acetate] | 3.26 |

| SMILES | IC50 [µM] |
| --- | --- |
| O=C(NC(C(=O)OC(C(=O)Nc1ccccc1)c1ccccc1)c1ccccc1)c1ccccc1 (stereo not shown) [Compound 76, (2-anilino-2-oxo-1-phenyl-ethyl) 2-benzamido-2-phenyl-acetate] | 3.34 |
| COc1ccc(CC(=O)OCC(=O)Nc2ccccc2)cc1 [Compound 77] | 3.89 |
| COc1ccc(NC(=O)C(OC(=O)C(c2ccccc2)c2ccccc2)c2ccccc2)cc1 (stereo not shown) [Compound 78, [2-(4-methoxyanilino)-2-oxo-1-phenyl-ethyl] 2,2-diphenylacetate] | 4.33 |
| Cc1cc(NC(=O)C(OC(=O)C(c2ccccc2)c2ccccc2)C(C)C)no1 (stereo not shown) [Compound 79, [2-methyl-1-[(5-methylisoxazol-3-yl)carbamoyl]propyl] 2,2-diphenylacetate] | 4.56 |
| Cc1cc(NC(=O)COC(=O)C(c2ccccc2)c2ccccc2)no1 [Compound 80] | 4.7 |
| Cc1cc(NC(=O)COC(=O)Cc2ccc(Cl)cc2)no1 [Compound 81, [2-[(5-methylisoxazol-3-yl)amino]-2-oxo-ethyl] 2-(4-chlorophenyl)acetate] | 5 |
| CCC(OC(=O)C(CCSC)NC(=O)c1ccccc1)C(=O)Nc1cc(C)on1 (stereo not shown) [Compound 82] | 5.5 |
| CC(OC(=O)C(NC(=O)c1ccccc1)c1ccccc1)C(=O)NCc1ccccc1 (stereo not shown) [Compound 83, [2-(benzylamino)-1-methyl-2-oxo-ethyl] 2-benzamido-2-phenyl-acetate] | 5.89 |
| COc1ccc(CC(=O)OC(C(=O)Nc2cc(C)on2)C(C)C)cc1 (stereo not shown) [Compound 84, [2-methyl-1-[(5-methylisoxazol-3-yl)carbamoyl]propyl] 2-(4-methoxyphenyl)acetate] | 6.25 |
| CCC(OC(=O)C(NC(=O)c1ccccc1)c1ccccc1)C(=O)Nc1cc(C)on1 (stereo not shown) [Compound 85] | 6.43 |
| Cc1cc(NC(=O)COC(=O)C(c2ccccc2)c2ccccc2)no1 [Compound 86] | 6.64 |
| COc1ccc(NC(=O)COC(=O)C(c2ccccc2)c2ccccc2)cc1 [Compound 87] | 7.39 |
| O=C(COC(=O)C(c1ccccc1)c1ccccc1)Nc1ccc(F)cc1 [Compound 88] | 8.49 |
| CCC(OC(=O)C(CC(C)C)NC(=O)c1ccccc1)C(=O)Nc1cc(C)on1 (stereo not shown) [Compound 89] | 9.1 |
| O=C(COC(=O)C(c1ccccc1)c1ccccc1)Nc1ccccc1 [Compound 90] | 11.2 |
| CC(C)C(OC(=O)Cc1ccc(Cl)cc1)C(=O)Nc1ccccc1 (stereo not shown) [Compound 91, [2-methyl-1-(phenylcarbamoyl)propyl] 2-(4-chlorophenyl)acetate] | 4.1 |
| COc1ccc(NC(=O)C(OC(=O)Cc2ccc(Cl)cc2)C(C)C)cc1 (stereo not shown) [Compound 92, [1-[(4-methoxyphenyl)carbamoyl]-2-methyl-propyl] 2-(4-chlorophenyl)acetate] | 3.8 |
| CC(C)C(OC(=O)C(NC(=O)c1ccccc1)c1ccccc1)C(=O)Nc1ccccc1 (stereo not shown) [Compound 93, [2-methyl-1-(phenylcarbamoyl)propyl] 2-benzamido-2-phenyl-acetate] | 2.3 |
| COc1ccc(CC(=O)OC(C(=O)Nc2ccccc2)C(C)C)cc1 (stereo not shown) [Compound 94, [2-methyl-1-(phenylcarbamoyl)propyl] 2-(4-methoxyphenyl)acetate] | 3.6 |
| COc1ccc(NC(=O)C(OC(=O)C(NC(=O)c2ccccc2)c2ccccc2)C(C)C)cc1 (stereo not shown) [Compound 95, [1-[(4-methoxyphenyl)carbamoyl]-2-methyl-propyl] 2-benzamido-2-phenyl-acetate] | 6.3 |
| CC(C)C(OC(=O)C(NC(=O)c1ccccc1)c1ccccc1)C(=O)Nc1ccc(F)cc1 (stereo not shown) [Compound 96, [1-[(4-fluorophenyl)carbamoyl]-2-methyl-propyl] 2-benzamido-2-phenyl-acetate] | 3.7 |
